Test results published in patent US11845752B2, “Substituted imidazo[1,5-a]pyrazines for the treatment of hepatitis B” (ALIGOS THERAPEUTICS, INC., priority 2020, dated 2023).

System: HBV
Test: HBV-DNA antiviral assay using HepG2.117 cells (intracellular HBV DNA by qPCR)
Format: cell-based, HBV genotype D
Details: Hepatitis B virus, HepG2.117, 72 h, HBV DNA inhibition, 3 days incubation, read-out: EC50
In short: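 Read-outs: cell-lysate HBV DNA copies by qPCR (interpolated from gBlock standard) and parallel cellular ATP luminescence for CC50, both normalised to 2% DMSO controls and fitted by non-linear regression. HepG2.117 Tet-off genotype D HBV cells, induced by doxycycline removal, exposed 3 days to 4-fold serial dilutions.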

Compound | EC50 [µM]
Cn1cnc2ccc(-n3c(C(=O)NCc4ccccc4)c4n(c3=O)CCN(C(=O)c3ccc(Br)c(Cl)c3)C4)cc21 [Compound 124, N-benzyl-7-(4-bromo-3-chloro-benzoyl)-2-(3-methylbenzimidazol-5-yl)-3-oxo-6,8-dihydro-5H-imidazo[1,5-a]pyrazine-1-carboxamide] | 0.5 to 5
O=C(NCc1ccccc1)c1c2n(c(=O)n1-c1ccc3ocnc3c1)CCN(C(=O)c1ccc(Br)c(Cl)c1)C2 [Compound 126, 2-(1,3-benzoxazol-5-yl)-N-benzyl-7-(4-bromo-3-chloro-benzoyl)-3-oxo-6,8-dihydro-5H-imidazo[1,5-a]pyrazine-1-carboxamide] | 0.5 to 5
CNc1nc2cc(-n3c(C(=O)NCc4ccccc4)c4n(c3=O)CCN(C(=O)c3ccc(Br)c(Cl)c3)C4)ccc2o1 [Compound 127, N-benzyl-7-(4-bromo-3-chloro-benzoyl)-2-[2-(methylamino)-1,3-benzoxazol-5-yl]-3-oxo-6,8-dihydro-5H-imidazo[1,5-a]pyrazine-1-carboxamide] | 0.5 to 5
O=C(NCc1ccccc1)c1c2n(c(=O)n1-c1ccc3c(ccn3CCO)c1)CCN(C(=O)c1ccc(Br)c(Cl)c1)C2 [Compound 128, N-benzyl-7-(4-bromo-3-chloro-benzoyl)-2-[1-(2-hydroxyethyl)indol-5-yl]-3-oxo-6,8-dihydro-5H-imidazo[1,5-a]pyrazine-1-carboxamide] | 0.05 to 0.5
O=C(NCc1ccccc1)c1c2n(c(=O)n1-c1ccc(OC3CC(O)C3)cc1)CCN(C(=O)c1ccc(Br)c(Cl)c1)C2 (centres unmarked) [Compound 129, N-benzyl-7-(4-bromo-3-chloro-benzoyl)-2-[4-(3-hydroxycyclobutoxy)phenyl]-3-oxo-6,8-dihydro-5H-imidazo[1,5-a]pyrazine-1-carboxamide] | 0.05 to 0.5
